Earlier results as cited in patent US20100323978A1, “Non-aqueous oil delivery system for ophthalmic drugs” (priority 2009, published 2010).
Structures can show the parent of a compound that is named as a salt. Where two headings read alike, the source gives them in different places.

Legend:
[1] = warning label
rabbits = conditions: 10 micro Liters eye drop
rabbit eyes = conditions: aqueous suspension injected into the eyes for three days
[2] = 0.15 Molar suspended in sesame seed oil

CN(C)CCOC(=O)C(c1ccccc1)C1(O)CCCC1 (centres unmarked) [Cyclopentolate HCl]
stability of powder [1]: not stable at room temperature

CNC[C@H](O)c1cccc(O)c1 [phenylephrine HCl]
mydriasis in the rabbit (rabbits; [2]): ineffective
mydriasis in the rabbit (rabbits; 0.5 Molar suspended in sesame seed oil): slightly effective

CNC[C@H](O)c1cccc(O)c1 [phenylephrine free base]
mydriasis in the rabbit (rabbits; [2]): produced mydriasis

alpha-hydroxy-testosterone
intra-ocular pressure (rabbit eyes): decreased
